How the values were obtained:
Assay in all cases: fitness (endpoint OD595 vs no drug) (fraction); higher = more growth
[1] = system: S. pneumoniae D39V
Summary of the method: (§1)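 Fitness expresses the optical density reached at the stationary-phase transition as a fraction of the robust mean of no-drug control wells. It is capped at 1. Measurements were OD595 every 30 min for 14 h at 37 °C after inoculation of 384-well plates at OD595 0.01 (30 µl, or 55 µl for S. pneumoniae), minus the first reading.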

[2] = system: S. aureus DSM 20231
Summary of the method: as §1

[3] = system: S. aureus Newman
Summary of the method: as §1
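Also: OD595 on entry to stationary phase over no-drug wells; at most 1.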

CO[C@@]12[C@H](COC(N)=O)C3=C(C(=O)C(C)=C(N)C3=O)N1C[C@@H]1N[C@@H]12 [Mitomycin C] + CN[C@@H]1[C@H](O)[C@H](NC)[C@H]2O[C@@]3(O)C(=O)C[C@@H](C)O[C@H]3O[C@@H]2[C@H]1O [Spectinomycin]
fitness
Details | first compound 0.001075 µg/mL | first compound 0.00215 µg/mL | first compound 0.0043 µg/mL | first compound 0.0156 µg/mL | first compound 0.0312 µg/mL | first compound 0.0625 µg/mL
[1], partner 4 µg/mL | 0.899 | 0.814 | 0.746 | – | – | –
[1], partner 8 µg/mL | 0.916 | 0.824 | 0.647 | – | – | –
[1], partner 16 µg/mL | 0.839 | 0.784 | 0.628 | – | – | –
[2], partner 4 µg/mL | – | – | – | 0.726 | 0.729 | 0.67
[2], partner 8 µg/mL | – | – | – | 0.705 | 0.733 | 0.62
[2], partner 16 µg/mL | – | – | – | 0.687 | 0.667 | 0.57
[3], partner 4 µg/mL | – | – | – | 0.653 | 0.656 | 0.496
[3], partner 8 µg/mL | – | – | – | 0.662 | 0.684 | 0.432
[3], partner 16 µg/mL | – | – | – | 0.603 | 0.541 | 0.33

fitness, one replicate
Details | first compound 0.002 µg/mL | first compound 0.004 µg/mL | first compound 0.008 µg/mL | first compound 0.0156 µg/mL | first compound 0.0312 µg/mL | first compound 0.0625 µg/mL
[1], partner 4 µg/mL | 0.903 | 0.851 | 0.638 | – | – | –
[1], partner 8 µg/mL | 0.812 | 0.77 | 0.562 | – | – | –
[2], partner 32 µg/mL | – | – | – | 0.614 | 0.475 | 0.258
[2], partner 64 µg/mL | – | – | – | 0.0362 | 0.0235 | 0.0021
[3], partner 32 µg/mL | – | – | – | 0.294 | 0.158 | 0.034
[3], partner 64 µg/mL | – | – | – | 0.017 | 0.0135 | 0

CO[C@@]12[C@H](COC(N)=O)C3=C(C(=O)C(C)=C(N)C3=O)N1C[C@@H]1N[C@@H]12 [Mitomycin C] + CCN(CC)CCOC(=O)c1ccc(N)cc1 [Procaine]
fitness
Details | first compound 0.001075 µg/mL | first compound 0.00215 µg/mL | first compound 0.0043 µg/mL | first compound 0.0156 µg/mL | first compound 0.0312 µg/mL | first compound 0.0625 µg/mL
[1], partner 85.5 µg/mL | 0.966 | 0.935 | 0.844 | – | – | –
[1], partner 171 µg/mL | 0.929 | 0.939 | 0.814 | – | – | –
[1], partner 342 µg/mL | 0.937 | 0.951 | 0.826 | – | – | –
[2], partner 85.5 µg/mL | – | – | – | 0.724 | 0.668 | 0.533
[2], partner 171 µg/mL | – | – | – | 0.796 | 0.753 | 0.572
[2], partner 342 µg/mL | – | – | – | 0.754 | 0.743 | 0.576
[3], partner 85.5 µg/mL | – | – | – | 0.768 | 0.74 | 0.595
[3], partner 171 µg/mL | – | – | – | 0.765 | 0.695 | 0.582
[3], partner 342 µg/mL | – | – | – | 0.772 | 0.686 | 0.565

fitness, [1], one replicate
Details | first compound 0.002 µg/mL | first compound 0.004 µg/mL | first compound 0.008 µg/mL
partner 85.5 µg/mL | 0.923 | 0.885 | 0.633
partner 171 µg/mL | 0.885 | 0.847 | 0.641
partner 342 µg/mL | 0.818 | 0.812 | 0.645

CO[C@@]12[C@H](COC(N)=O)C3=C(C(=O)C(C)=C(N)C3=O)N1C[C@@H]1N[C@@H]12 [Mitomycin C] + Cc1onc(-c2ccccc2)c1C(=O)N[C@@H]1C(=O)N2[C@@H]1SC(C)(C)[C@@H]2C(=O)O [Oxacillin]
Details | fitness
[1], first compound 0.001075 µg/mL, partner 0.01 µg/mL | 0.973
[1], first compound 0.001075 µg/mL, partner 0.02 µg/mL | 0.957
[1], first compound 0.002 µg/mL, partner 0.01 µg/mL | 0.838
[1], first compound 0.002 µg/mL, partner 0.02 µg/mL | 0.764
[1], first compound 0.002 µg/mL, partner 0.04 µg/mL | 0.219
[1], first compound 0.00215 µg/mL, partner 0.01 µg/mL | 0.974
[1], first compound 0.00215 µg/mL, partner 0.02 µg/mL | 0.968
[1], first compound 0.00215 µg/mL, partner 0.04 µg/mL | 0.605
[1], first compound 0.004 µg/mL, partner 0.01 µg/mL | 0.813
[1], first compound 0.004 µg/mL, partner 0.02 µg/mL | 0.735
[1], first compound 0.004 µg/mL, partner 0.04 µg/mL | 0.227
[1], first compound 0.0043 µg/mL, partner 0.01 µg/mL | 0.891
[1], first compound 0.0043 µg/mL, partner 0.02 µg/mL | 0.822
[1], first compound 0.008 µg/mL, partner 0.01 µg/mL | 0.664
[1], first compound 0.008 µg/mL, partner 0.02 µg/mL | 0.636
[1], first compound 0.008 µg/mL, partner 0.04 µg/mL | 0.241
[2], first compound 0.0156 µg/mL, partner 0.0156 µg/mL | 0.586
[2], first compound 0.0156 µg/mL, partner 0.0312 µg/mL | 0.458
[2], first compound 0.0156 µg/mL, partner 0.0625 µg/mL | 0.389
[2], first compound 0.0312 µg/mL, partner 0.0156 µg/mL | 0.581
[2], first compound 0.0312 µg/mL, partner 0.0312 µg/mL | 0.499
[2], first compound 0.0312 µg/mL, partner 0.0625 µg/mL | 0.432
[2], first compound 0.0625 µg/mL, partner 0.0156 µg/mL | 0.544
[2], first compound 0.0625 µg/mL, partner 0.0312 µg/mL | 0.474
[2], first compound 0.0625 µg/mL, partner 0.0625 µg/mL | 0.348
[3], first compound 0.0156 µg/mL, partner 0.0156 µg/mL | 0.672
[3], first compound 0.0156 µg/mL, partner 0.0312 µg/mL | 0.616
[3], first compound 0.0156 µg/mL, partner 0.0625 µg/mL | 0.485
[3], first compound 0.0312 µg/mL, partner 0.0156 µg/mL | 0.571
[3], first compound 0.0312 µg/mL, partner 0.0312 µg/mL | 0.534
[3], first compound 0.0312 µg/mL, partner 0.0625 µg/mL | 0.423
[3], first compound 0.0625 µg/mL, partner 0.0156 µg/mL | 0.421
[3], first compound 0.0625 µg/mL, partner 0.0312 µg/mL | 0.307
[3], first compound 0.0625 µg/mL, partner 0.0625 µg/mL | 0.111

CO[C@@]12[C@H](COC(N)=O)C3=C(C(=O)C(C)=C(N)C3=O)N1C[C@@H]1N[C@@H]12 [Mitomycin C] + COc1ccc(C[C@H](N)C(=O)N[C@H]2[C@@H](O)[C@H](n3cnc4c(N(C)C)ncnc43)O[C@@H]2CO)cc1 [Puromycin]
fitness
Details | first compound 0.001075 µg/mL | first compound 0.00215 µg/mL | first compound 0.0043 µg/mL | first compound 0.0156 µg/mL | first compound 0.0312 µg/mL | first compound 0.0625 µg/mL
[1], partner 1 µg/mL | 0.986 | 0.968 | 0.867 | – | – | –
[1], partner 2 µg/mL | 0.935 | 0.915 | 0.781 | – | – | –
[1], partner 4 µg/mL | 0.798 | 0.775 | 0.654 | – | – | –
[2], partner 0.39 µg/mL | – | – | – | 0.759 | 0.758 | 0.593
[2], partner 0.78 µg/mL | – | – | – | 0.776 | 0.78 | 0.638
[2], partner 1.56 µg/mL | – | – | – | 0.752 | 0.699 | 0.582
[3], partner 0.39 µg/mL | – | – | – | 0.79 | 0.651 | 0.552
[3], partner 0.78 µg/mL | – | – | – | 0.766 | 0.704 | 0.604
[3], partner 1.56 µg/mL | – | – | – | 0.764 | 0.662 | 0.494

fitness, one replicate
Details | first compound 0.002 µg/mL | first compound 0.004 µg/mL | first compound 0.008 µg/mL | first compound 0.0156 µg/mL | first compound 0.0312 µg/mL | first compound 0.0625 µg/mL
[1], partner 1 µg/mL | 0.798 | 0.786 | 0.685 | – | – | –
[1], partner 2 µg/mL | 0.783 | 0.762 | 0.692 | – | – | –
[1], partner 4 µg/mL | 0.628 | 0.612 | 0.541 | – | – | –
[2], partner 3.12 µg/mL | – | – | – | 0.807 | 0.594 | 0.363
[2], partner 6.24 µg/mL | – | – | – | 0.27 | 0.219 | 0.114

— the supplement of paper PMC10627819
